Measurements: patent US20040102360A1, “Combination therapy” (priority 2002, published 2004)

Columns and labels:
MDA-MB468 cells = assay: Caspase 3 activation apoptosis assay in MDA-MB468 cells; format: cell-based, human; conditions: FIG. 6 (a)
Procedure: (§1) The herein disclosed inhibitors were evaluated as to the ability to increase cell death. Inhibitors of Akt and inhibitors of Akt and a protein kinase were assessed alone and in combination to determine the effect on caspase 3 activation.
(§2) Apoptosis Assay: Caspase 3 Activation
(§3) Cells were seeded in 96 well plates at concentrations ranging from 2×10^3 to 1×10^4 cells per well in their respective growth media. For anchorage independent assays (spheroids) cells were plated in 96 well plates that had been coated with poly-heme(poly 2-hydroxyethylmethacrylate [Sigma] 10 mg/ml in 95% ethanol). 72 hours later caspase 3 assays were set up as follows:
(§4) a. For standard combination assays, compounds were added at respective concentrations indicated and plates incubated at 37° C. in a CO2 incubator for 18 hours. For standard combination assays utilizing treatment with camptothecin, compounds and camptothecin were added at the same time at the respective concentrations indicated.
(§5) b. For combinations involving addition of the death receptor ligand TRAIL/Apo2L (Research Diagnostics) compounds were added for 1.5 hours prior to addition of TRAIL and plates incubated an additional 3 to 4 hours post TRAIL addition. In the case of the time course, plates were incubated for 2, 3, 4, 5, 6 and 7 hrs with Trail ligand before ending the assay. […]

LnCaP cells = assay: Caspase 3 activation apoptosis assay in LnCaP cells; format: cell-based, human
Procedure: as §1, §2, §3, §4, §5

LnCaP/Akt3 cell line = assay: Caspase 3 activation apoptosis assay in LnCaP/Akt3 cells; format: cell-based, human; conditions: FIG. 4 (b)
Procedure: as §1, §2, §3, §4, §5

Akt1, Akt2 and Akt3 = assay: Akt kinase assays (HTRF, GSK-derived biotinylated peptide substrate); format: biochemical, human; conditions: as characterised in the figure legends
Procedure: Activated AKT isoforms and pleckstrin homology domain deletion constructs were assayed utilizing a GSK-derived biotinylated peptide substrate. The extent of peptide phosphorylation was determined by Homogeneous Time Resolved Fluorescence (HTRF) using a lanthamide chelate (Lance)-coupled monoclonal antibody specific for the phosphopeptide in combination with a streptavidin-linked allophycocyanin (SA-APC) fluorophore which will bind to the biotin moiety on the peptide. When the Lance and APC are in proximity (i.e. bound to the same phosphopeptide molecule), a non-radiative energy transfer takes place from the Lance to the APC, followed by emission of light from APC at 665 nm.
The reaction is assembled by adding 16 TL of the ATP/MgCl2 working solution to the appropriate wells of a 96-well microtiter plate. Inhibitor or vehicle (1.0 Tl) is added followed by 10 Tl of peptide working solution. The reaction is started by adding 13 Tl of the enzyme working solution and mixing. The reaction is allowed to proceed for 50 min and then stopped by the addition of 60 Tl HTRF quench buffer. The stopped reactions were incubated at room temperature for at least 30 min and then read on the Discovery instrument.

MCF7 cells = assay: Caspase 3 activation apoptosis assay in MCF7 cells; format: cell-based, human; conditions: co-treatment with Camptothecin, FIG. 3
Procedure: as §1, §2, §3, §4, §5

Row | Compound | Caspase 3 activity in the presence of Trail (MDA-MB468 cells) | Caspase 3 activity in the presence of Trail (LnCaP cells; FIG. 4 (a)) | Caspase 3 activity in the presence of Trail (LnCaP/Akt3 cell line) | Akt isoform selectivity (Akt1, Akt2 and Akt3) | fold increase in Caspase 3 activation over Camptothecin alone (MCF7 cells) [fold] | fold increase in Caspase 3 activation over Trail alone (LnCaP cells; + TRAIL ligand, FIG. 1) [fold]
1 | CN(C)CC(C)(C)CNc1nn2c(-c3ccccc3)nnc2cc1C1CCC1 [Compound 1, N′-(7-Cyclobutyl-3-phenyl-[1,2,4]triazolo[4,3-b]pyridazin-6-yl)-2,2,N,N-tetramethyl-propane-1,3-diamine] | increase in Caspase 3 activity | increase in Caspase 3 activity | increase in Caspase 3 activity | selective Akt1 inhibitor | – | –
2 | O=c1[nH]c2ccccc2n1C1CCN(Cc2ccc(-c3nc4cc5nc[nH]c5cc4nc3-c3ccccc3)cc2)CC1 [Compound 12-5, 1-{1-[4-(7-Phenyl-1H-imidazo[4,5-g]quinoxalin-6-yl)benzyl]piperidin-4-yl}-1,3-dihydro-2H-benzimidazol-2-one] | – | – | – | selective Akt1 and Akt2 inhibitor | 5.8 | –
3 | NC(=O)c1[nH]c2ccc(Br)cc2c1S(=O)(=O)N1CCOCC1 [Compound A] | – | – | – | – | 8.7 | 1.2
